# Laboratory results reported in US7405236B2, “Indole derivatives comprising an acetylene group” (Hoffman-La Roche Inc., priority 2004, dated 2008).
# Experiments:
# Conditions in all cases: receptor binding, SPA
# [1] = target: T1, PPARδ (Homo sapiens, UniProt Q03181); assay: PPARδ radioligand binding assay (scintillation proximity, GST-PPARδ-LBD)
# T1 construct: PPARδ (aa 139 to 442); made in house; host or cells: E. coli BL21(pLysS)
# T1 sequence (Q03181 139-441 limits assumed): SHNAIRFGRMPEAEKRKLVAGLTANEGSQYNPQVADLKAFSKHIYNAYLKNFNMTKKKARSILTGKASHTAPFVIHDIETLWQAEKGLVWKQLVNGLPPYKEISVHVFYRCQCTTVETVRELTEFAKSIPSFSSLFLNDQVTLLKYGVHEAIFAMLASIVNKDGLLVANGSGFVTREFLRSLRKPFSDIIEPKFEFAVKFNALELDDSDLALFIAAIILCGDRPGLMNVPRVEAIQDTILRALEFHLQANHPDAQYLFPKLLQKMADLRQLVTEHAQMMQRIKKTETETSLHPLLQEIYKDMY
# Source text: (§1) Background information on the performed assays can be found in: Nichols J S et al. “Development of a scintillation proximity assay for peroxisome proliferator-activated receptor gamma ligand binding domain”, (1998) Anal. Biochem. 257: 112-119.
# (§2) Full-length cDNA clones for humans PPARδ and PPARα and mouse PPARγ were obtained by RT-PCR from human adipose and mouse liver cRNA, respectively, cloned into plasmid vectors and verified by DNA sequencing. Bacterial and mammalian expression vectors were constructed to produce glutathione-s-transferase (GST) and Gal4 DNA binding domain proteins fused to the ligand binding domains (LBD) of PPARδ (aa 139 to 442), PPARγ (aa 174 to 476) and PPARα (aa 167 to 469). To accomplish this, the portions of the cloned sequences encoding the LBDs were amplified from the full-length clones by PCR and then subcloned into the plasmid vectors. Final clones were verified by DNA sequence analysis. […]
# PPARδ receptor binding was assayed in HNM10 (50 mM Hepes, pH 7.4, 10 mM NaCl, 5 mM MgCl2, 0.15 mg/ml fatty acid-free BSA and 15 mM DTT). […] Radioligand was added and the reaction incubated at RT for 1 h and scintillation proximity counting performed in the presence of test compounds was determined. All binding assays were performed in 96 well plates and the amount of bound ligand was measured on a Packard TopCount using OptiPlates (Packard). […]
# [2] = target: T2, PPARγ (Mus musculus, UniProt P37238); assay: PPARγ radioligand binding assay (scintillation proximity, GST-PPARγ-LBD)
# T2 construct: PPARγ (aa 174 to 476); made in house; host or cells: E. coli BL21(pLysS)
# T2 sequence (P37238 204-505): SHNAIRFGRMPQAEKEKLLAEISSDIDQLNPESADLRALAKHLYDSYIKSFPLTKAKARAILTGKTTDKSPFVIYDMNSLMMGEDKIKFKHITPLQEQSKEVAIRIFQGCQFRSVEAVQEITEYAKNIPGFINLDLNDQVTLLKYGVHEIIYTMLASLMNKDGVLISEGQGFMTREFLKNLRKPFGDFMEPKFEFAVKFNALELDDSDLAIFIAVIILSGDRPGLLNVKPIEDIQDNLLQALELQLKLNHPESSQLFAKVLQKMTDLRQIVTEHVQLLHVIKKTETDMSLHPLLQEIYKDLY
# Source text: as §1, §2
# (§3) PPARγ receptor binding was assayed in TKE50 (50 mM Tris-HCl, pH 8, 50 mM KCl, 2 mM EDTA, 0.1 mg/ml fatty acid-free BSA and 10 mM DTT). […] All binding assays were performed in 96 well plates and the amount of bound ligand measured on a Packard TopCount using OptiPlates (Packard). Nonspecific binding was determined in the presence of 10^−4 M unlabelled compound. […]
# [3] = target: T3, PPARα (Homo sapiens, UniProt Q07869); assay: PPARα radioligand binding assay (scintillation proximity, GST-PPARα-LBD)
# T3 construct: PPARα (aa 167 to 469); made in house; host or cells: E. coli BL21(pLysS)
# T3 sequence (Q07869 167-468 limits assumed): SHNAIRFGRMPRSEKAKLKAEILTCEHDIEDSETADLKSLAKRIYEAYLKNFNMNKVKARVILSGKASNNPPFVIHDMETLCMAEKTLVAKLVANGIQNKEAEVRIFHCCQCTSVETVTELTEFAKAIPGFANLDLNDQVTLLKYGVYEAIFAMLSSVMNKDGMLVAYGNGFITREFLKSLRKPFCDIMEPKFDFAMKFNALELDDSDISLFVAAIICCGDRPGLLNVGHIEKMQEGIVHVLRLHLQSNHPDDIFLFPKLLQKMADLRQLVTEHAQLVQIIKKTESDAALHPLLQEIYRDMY
# Source text: as §1, §2
# as §3, with “PPARα” for “PPARγ”
IC50 [1],IC50 [2],IC50 [3],SMILES
301 nM,> 10000 nM,74 nM,"O=C(O)Cn1ccc2cc(OCCCC#Cc3ccc(OC(F)(F)F)cc3)ccc21 [Example 6, {5-[5-(4-Trifluoromethoxy-phenyl)-pent-4-ynyloxy]-indol-1-yl}-acetic acid]"
149 nM,> 10000 nM,317 nM,"O=C(O)Cn1ccc2ccc(OCCCC#Cc3cccc(OC(F)(F)F)c3)cc21 [Example 2, {6-[5-(3-Trifluoromethoxy-phenyl)-pent-4-ynyloxy]-indol-1-yl}-acetic acid]"
